Measured values taken from US4500516A, “Antibacterial pharmaceutical composition” (priority 1982, dated 1985).
Where a name gives a salt, the structure may show the parent alone. Read-outs that look alike come from different tables or passages of the source.

Columns and labels:
[1] = rabbit, in vivo, po, 5 mg/kg, cited from earlier work; for total quantity removed, of the total quantity administered: 2880 min
[2] = cited from earlier work
[3] = cited from earlier work; remark: listed apart in the source
[4] = cited from earlier work; remark: listed apart in the source
[5] = tested on: infectious inflammatory diseases; conditions: prior-art drugs; cited from earlier work
[6] = tested on: pathogenic microorganisms; conditions: cited from earlier work
[7] = tested on: white mice; conditions: cited from earlier work
[8] = prior-art drugs; cited from earlier work
[9] = in vivo; conditions: rabbit, urine, 50 mg/kg
[10] = cited from earlier work; remark: listed apart in the source
[11] = in vivo; conditions: rabbit, blood
[12] = tested on: Staphylococcus aureus haemolyticus; test: bacteriostatic concentration; type: cell-based
[13] = tested on: Bac. coil; test: bacteriostatic concentration; type: cell-based
[14] = tested on: Bac. mycoides; test: microbe, parasite or virus in culture; type: cell-based; conditions: Bacillus mycoides, read-out: bacteriostatic concentration
[15] = rabbit, in vivo, 50 mg/kg

In the case of `O=C1CN(N=CC=Cc2ccc([N+](=O)[O-])o2)C(=O)N1` [Furagin, N-[β-(5'-nitrofuryl-2')-acrylidene]-1-aminohydantoin], the “total quantity removed, of the total quantity administered” value [1] is listed as 2.75±0.41%, the “concentrations in the urine, Furagin versus Solafur” value [1] is listed as “roughly equal” and the intolerance ([2]; in vivo) is listed as “in quite a number of cases, said pharmaceutical composition is observed to meet with intolerance”. The solubility in water [3] was “very poorly soluble in water”, the pK [4] was 6 and the spectrum of action [5] was “wider spectrum of therapeutic action than the aforesaid Nitrofurantoin and Furadantin”.
For `O=C1CN(N=Cc2ccc([N+](=O)[O-])o2)C(=O)N1` [Nitrofurantoin, 1-(5'-nitrofurfurylideneamino)-hydantoin], the bacteriostatic concentration value ([6]; in words) is listed as “comparatively high”, the intolerance ([2]; medical practice) is listed as “Sometimes this pharmaceutical composition is observed to meet with intolerance” and the LD50 ([7]; white mice, oral administration) is listed as 166.7 mg/kg. For the same molecule, the spectrum of action [5] was “relatively limited spectrum of action”, the toxicity [8] was “noticeably toxic” and the Cmax [9] was 610 µg/mL. The Tmax [9] was 1 h, the “removal from the organism” value ([10]; in vivo) was “quickly removed from the organism” and the “absorption from the gastrointestinal tract” value ([10]; oral) was “quickly absorbable from the gastrointestinal tract”. The “drug concentration in the blood and in the urine” value ([10]; oral) was “capable of reaching a level sufficient to produce a therapeutic effect”.
In the case of `O=C1CN(N=CC=Cc2ccc([N+](=O)[O-])o2)C(=O)N1` [Solafur, potassium salt of N-[β-(5'-nitrofuryl-2')-acrylidene]-1-aminohydantoin], the concentration at 0.25 h [11] is given as 2.8 µg/mL, the “synergistic action with antibiotics” value ([6]; a range of antibiotics, most pathogenic microorganisms) is given as “capability of producing synergistic action with a range of antibiotics upon most pathogenic microorganisms” and the “total quantity removed, of the total quantity administered” value [1] is given as 2.83±0.48%. The “concentrations in the urine, Furagin versus Solafur” value [1] was “roughly equal”, the “side effects on faster administration” value ([2]; in vivo, iv) was “headache and nausea” and the intolerance ([2]; in vivo) was “in some cases this pharmaceutical composition is observed to meet with intolerance”. For the same molecule, the solubility in water [3] was “higher than that of the aforementioned Furagin”, the MIC [12] was 2.5 µg/mL and the MIC [13] was 2.5 µg/mL. For the same molecule, the MIC [14] was 2.5 µg/mL, the LD50 ([7]; mouse, in vivo, po) was 390 mg/kg and the spectrum of action [5] was “broader spectrum of action compared to Furagin”. For the same molecule, the “total excretion of Solafur with urine” value [15] was 3.43 ± 0.3 mg.
